# Data taken from publication PMC10644720 (Frontiers in Pharmacology, 2023).
# Key:
# GPVI signaling = test: Western blot of ITAM and MAPK signaling molecules; type: cell-based, human; details: convulxin-induced
# Experimental: A lysis buffer (5x, PBS, PH7.4, comprising 2.5% sodium dodecyl sulfate [SDS], 5% deoxycholate, 5% vol/vol Triton X-100, phosphatase and proteinase inhibitors cocktails) was used to lyse the cells on ice for 30 min. The platelet lysate was centrifuged at 12,000 rpm for 10 min at 4°C. The supernatant was added to 5× protein loading buffer and boiled. The proteins were separated by 10% SDS-PAGE gels and transferred to membranes. The PVDF membranes were blocked in EveryBlot Blocking buffer (Cat No. 12010020; Bio-Rad, Hercules, CA, United States) for 10 min. […] The intensity of the target bands was assessed by ImageJ software.
# [1] = test system: thrombosis and infarct area; parameters: method as in Liu et al., 2022; details: rats; gavage for 7 days at 20 mg/kg/day; ref Liu et al., 2022; cited from earlier work
# human washed platelets [2] = test: Platelet superoxide anion and H2O2 release (DHE, Amplex Red); type: cell-based; details: convulxin 5 ng/mL; luteolin 25 μM
# Experimental: A ROS probe via a fluorescent enzyme marker was added. O2 ^− and H2O2 were measured using 2 μM Amplex Red (Cat No. ST010; Beyotime Institute of Biotechnology, Shanghai, China) or 2 μM Dihydroethidium (DHE, Cat No. S0063; Beyotime Institute of Biotechnology, Shanghai, China). O2 ^− and H2O2 were analyzed using a Fluoroskan Ascent fluorometer (Thermo Fisher, Waltham, Massachusetts, United States).
# thrombin = test system: thrombin; parameters: method as in Choi et al. (2015); details: ref Choi et al. (2015); cited from earlier work
# [3] = Luteolin in vivo toxicity experiments (15 days i.p.); parameters: species or system C57BL/6 mice
# Experimental: Blood was collected from the orbits every 3 days for blood tests. On the second day, after 15 days of intraperitoneal administration, pentobarbital (45 mg/kg) was injected intraperitoneally for anesthesia, and blood was sampled from the eyes. Whole blood was left for 30–60 min, and the supernatant was centrifuged at 3,000 rpm for serum liver and kidney function testing using Unicel DxC600 (Beckman Coulter, Inc. Brea, California, US). Finally, the mice were sacrificed by cervical dislocation, and the sternum was fixed in 4% paraformaldehyde. […]
# human washed platelets [4] = test: Platelet intracellular Ca2+ release assay (Fluo-3AM); type: cell-based; details: collagen (10 μg/mL)- and convulxin (5 ng/mL)-induced
# Experimental: The assay was performed as previously reported with minor modifications ([Arthur et al., 2012]; [Ye et al., 2020]). Briefly, WPs (500 × 10^9/L) were labeled with 5 μM Fluo-3AM (Cat No. IF0150; Solarbio) or 10 μM DCFH-DA (Cat No. D6883; Sigma, St. Louis, MO, United States) at 37°C for 30 min protected from light. […] In addition, 1 mM CaCl2 and collagen or convulxin were added to start the reaction. Ca^2+ release and ROS production were analyzed using a Fluoroskan Ascent fluorometer (Thermo Fisher, Waltham, Massachusetts, US) at excitation (ex)/emission (em) = 490/530 nm, and the curves were plotted in real-time.
# [5] = luteolin 35 μM/kg i.p. daily for 15 days
# [6] = luteolin 35 μM/kg i.p. daily, 15 days, mean ± SEM
smiles,measurement,setting,value
O=c1cc(-c2ccc(O)c(O)c2)oc2cc(O)cc(O)c12 [Luteolin],phosphorylation of MAPK and ITAM,"GPVI signaling; Erk 1/2, SAPK/JNK, p38 MAPK",significant inhibitory effect
same,"phosphorylation of Src, Syk, PLCγ2, Akt and GSK-3β",GPVI signaling; non-aggregating conditions,inhibited
same,thrombosis and infarct area,[1],significantly reduce
same,platelet hydrogen peroxide release,human washed platelets [2],inhibited
same,platelet superoxide anion release,human washed platelets [2],inhibited
same,thrombin activity,thrombin,effectively inhibits
same,liver and kidney functions,[3]; luteolin 35 μM/kg for 15 days,normal
same,mean platelet volume vs DMSO,[3]; [5],no significant differences
same,megakaryocyte counts in bone marrow vs DMSO,[3]; [5],no significant differences
same,peripheral platelet count vs DMSO,[3]; [5],no significant differences
same,Alanine aminotransferase,[3]; [6],66.21 ± 5.35 U/L
same,Alkaline phosphatase,[3]; [6],75.00 ± 7.34 U/L
same,Aspartate aminotransferase,[3]; [6],147.20 ± 7.03 U/L
same,Blood urea nitrogen,[3]; [6],10.14 ± 0.40 mmol/L
same,Creatinine,[3]; [6],17.22 ± 2.61 µmol/L
same,Granulocyte %,[3]; [6],25.22 ± 0.74%
same,Granulocytes,[3]; [6],0.36 ± 0.03 ×10^9/L
same,Lymphocyte %,[3]; [6],57.39 ± 1.59%
same,Lymphocytes,[3]; [6],0.80 ± 0.04 ×10^9/L
same,Monocyte %,[3]; [6],17.39 ± 1.56%
same,Monocytes,[3]; [6],0.25 ± 0.04 ×10^9/L
same,Red blood cells,[3]; [6],0.65 ± 0.03 ×10^12/L
same,Total bilirubin,[3]; [6],5.24 ± 0.49 µmol/L
same,White blood cells,[3]; [6],1.35 ± 0.10 ×10^9/L
same,γ-glutamyl transferase,[3]; [6],6.20 ± 1.24 U/L
same,toxic effects in C57BL/6 mice,"[3]; mouse, in vivo",no significant toxic effects
same,platelet calcium release,human washed platelets [4],dose-dependently inhibited
